Biological target: T1, human S1P1 receptor (Homo sapiens, UniProt P21453)
T1 construct: expressed in transfected cells; membranes used
Assay: GTP γ35S binding assay for S1P1 activity
Type: biochemical
Settings: membranes of cells stably expressing the S1P1 receptor, test compounds 0.08 to 5,000 nM, 30 min at 25° C.
Experimental: Compounds were synthesized and tested for S1P1 activity using the GTP γ^35S binding assay. These compounds may be assessed for their ability to activate or block activation of the human S1P1 receptor in cells stably expressing the S1P1 receptor.
GTP γ^35S binding was measured in the medium containing (mM) HEPES 25, pH 7.4, MgCl2 10, NaCl 100, dithitothreitol 0.5, digitonin 0.003%, 0.2 nM GTP γ^35S, and 5 μg membrane protein in a volume of 150 μl. Test compounds were included in the concentration range from 0.08 to 5,000 nM unless indicated otherwise. Membranes were incubated with 100 μM 5′-adenylylimmidodiphosphate for 30 min, and subsequently with 10 μM GDP for 10 min on ice. Drug solutions and membrane were mixed, and then reactions were initiated by adding GTP γ^35S and continued for 30 min at 25° C. Reaction mixtures were filtered over Whatman GF/B filters under vacuum, and washed three times with 3 mL of ice-cold buffer (HEPES 25, pH7.4, MgCl2 10 and NaCl 100). Filters were dried and mixed with scintillant, and counted for ^35S activity using a β-counter. Agonist-induced GTP γ^35S binding was obtained by subtracting that in the absence of agonist. Binding data were analyzed using a non-linear regression method. In case of antagonist assay, the reaction mixture contained 10 nM S1P in the presence of test antagonist at concentrations ranging from 0.08 to 5000 nM.

T1 sequence (P21453 whole entry): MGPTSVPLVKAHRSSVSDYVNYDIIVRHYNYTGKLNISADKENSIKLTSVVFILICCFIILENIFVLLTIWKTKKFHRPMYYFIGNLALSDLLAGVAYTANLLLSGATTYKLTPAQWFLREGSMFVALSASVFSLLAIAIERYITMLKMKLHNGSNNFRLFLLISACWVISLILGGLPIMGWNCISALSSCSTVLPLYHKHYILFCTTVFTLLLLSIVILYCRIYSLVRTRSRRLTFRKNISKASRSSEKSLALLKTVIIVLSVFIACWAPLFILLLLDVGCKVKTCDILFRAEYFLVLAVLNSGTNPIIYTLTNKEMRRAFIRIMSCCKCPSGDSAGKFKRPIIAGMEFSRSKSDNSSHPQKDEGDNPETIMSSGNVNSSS

SMILES	EC50 [nM]
Cc1ccc(CC(CCCOc2ccc(CCC(N)(CO)CO)cc2)c2cccc(F)c2)cc1C (stereo not drawn) [Compound 2, 2-amino-2-[2-(4-{[5-(3,4-dimethylphenyl)-4-(3-fluorophenyl)pentyl]oxy}phenyl)ethyl]propane-1,3-diol]	42
Cc1ccc(CC(CCCOc2ccc(CCC(N)(CO)CO)cc2)c2cc(F)cc(F)c2)cc1C (stereo not drawn) [Compound 1, 2-amino-2-[2-(4-{[4-(3,5-difluorophenyl)-5-(3,4-dimethylphenyl)pentyl]oxy}phenyl)ethyl]propane-1,3-diol]	15.1
Cc1ccc(CC(CCCOc2ccc(CCC(N)(CO)CO)cc2)c2cccc(Cl)c2)cc1C (stereo not drawn) [Compound 3, 2-amino-2-[2-(4-{[4-(3-chlorophenyl)-5-(3,4-dimethylphenyl)pentyl]oxy}phenyl)ethyl]propane-1,3-diol]	92.4
